Series [1] in a line: UVB irradiation, HPLC-MS profile. It is filed as physicochemical. The following applies: irradiated vs non-irradiated. The source says: Both compounds were irradiated with UVB light and their HPLC-MS profile was compared to their respective non-irradiated controls. FIGS. 2, 3, 6, and 7 show HPLC chromatograms of UVB-irradiated (lower portions) and non-irradiated samples (upper portions) of bakuchiol (FIGS. 2 and 3) and SBD.SE (FIGS. 6 and 7) detected at 254 nm (FIGS. 2 and 6) and 230 nm (FIGS. 3 and 7).

Series [2] deals with UVB-irradiated neonatal human dermal fibroblasts (HDF). The series can be described thus: MTT cytotoxicity on UVB-irradiated HDF. The format is cell-based. The following applies: 10 μg/ml. The source says:
Retinoids are used to remediate the effects of photoaging, caused by exposure to solar radiation (Tierney, E. P., Hanke C. W., “Recent Advances in Combination Treatments for Photoaging: Review of the Literature,” Dermatol. Surg., 2010, 36:829-40). Therefore, we compared the effect of bakuchiol and SBD.FA on confluent cultures of UVB-irradiated neonatal human dermal fibroblasts (HDF). The total irradiation dose (150mJ/cm2) was biologically relevant, i.e., equivalent to doses received by humans exposed to midday, clear sky, midsummer sun for a moderate period of time (Besaratinia, A., Kim, S. I., Pfeifer, G. P., “Rapid repair of UVA-induced oxidized purines and persistence of UVB-induced dipyrimidine lesions determine the mutagenicity of sunlight in mouse cells,” FASEB J., 2008, 22(7):2379-92). […] Under these conditions, the cytotoxicity at the highest concentration tested (10 μg/ml) compared to the water-treated control was 36% for bakuchiol and 8% for SBD.FA, as determined by the MTT method (Berridge M. V., Tan A. S., “Characterization of the Cellular Reduction of 3-(4,5-dimethylthiazol-2-yl)-2,5-diphenyltetrazolium bromide (MTT): Subcellular Localization, Substrate Dependence, and Involvement of Mitochondrial Electron Transport in MTT Reduction,” Arch. Biochem. Biophys. 1993, 303:474-482), using Molecular Devices microplate spectrophotometer MAX190 at 570 nm.

The nature of series [3]: DPPH assay (free radical scavenging). The settings on record: 520 nm. It is filed as biochemical. The source says:
The objective of this experiment was to determine the antioxidant capacity of SBD.SE, using DPPH assay methodology. DPPH (2,2-diphenyl-1-picrylhydrazyl) is a stable free radical. The principle of the DPPH assay uses the reduction of the DPPH radical (purple) to diphenylpicrylhydrazine (yellow) as an indication of free radical scavenging capacity of a given test material (Schenk, G. H., Swieczkowski, N. K., “Colorimetric determination of pyrogallol and 2,6-dimethoxyphenol with diphenylpicrylhydrazyl,” Talanta, 1971, 18:230-4). Following the incubation of a test agent with DPPH solution, a reduction in absorbance at 520 nm compared to control is indicative of DPPH-scavenging. The degree of DPPH scavenging activity is expressed as % water control.
For orientation: Loss of DPPH colour is used to gauge radical scavenging.

For series [4], the system named is non-irradiated neonatal HDF. The series is described as follows: Cytotoxicity on non-irradiated neonatal HDF monolayers. The format is cell-based, human. The settings on record: 12.5 μg/ml.
The next series concerns P. acnes. The series can be described thus: MIC against planktonic P. acnes. The following applies: Cutibacterium acnes; exponentially-growing planktonic bacteria, oxygen-free atmosphere; read-out: MIC (minimal inhibitory concentration). The format is cell-based, Propionibacterium acnes. The protocol:
Serial dilutions of SBD.SE and SBD.FA were incubated with exponentially-growing planktonic P. acnes bacteria in oxygen-free atmosphere.
The MIC (minimal inhibitory concentration) for SBD.SE was determined to be about 30 μg/ml and for SBD.FA—about 60 μg/ml.

The test system of another series is adult HEK. The series is described as follows: Adult HEK proliferation. The format is cell-based, human. The settings on record: Homo sapiens; 2.5 μg/ml.
Series [5] has as its system mouse melanoma cells (B16F10). The series is described as follows: B16F10 melanoma growth and melanin. It is filed as cell-based. The settings on record: Mus musculus, B16-F10; 2.5 μg/ml; read-out: inhibition of B16F10 melanocyte proliferation. The source says:
Instead, cells cultured in the presence of SBD.SE grew slower and if allowed to reach monolayer, they become growth-arrested due to contact inhibition. […] Other retinoids, such as bexarotene, are known to have antineoplastic activity against cancers such as cutaneous T cell lymphoma.
The mechanism of action for this effect may be multifactorial and involve the inhibition of tyroinase and/or melanin secretion by melanocytes.

The next series deals with 3T3 cells. The series is described as follows: 3T3 Neutral Red phototoxicity (OECD 432). The format is cell-based. The settings on record: up to at least 100 μg/ml. The procedure: Phototoxicity is defined as light-activated cytotoxicity. […] The protocol followed in this example was based on the OECD 432 Guidelines. Four 96 well plates were seeded with 3T3 cells (Sigma, St. Louis, Mo.; cat. 93061524-1VL) at 10,000 cells per well in DMEM supplemented with 10% iron-fortified calf serum, and grown overnight in humidified atmosphere at 37° C. in 5% CO2. Serial dilutions of SBD.SE and chlorpromazine (positive control) were added to 2 plates each. […]
[…] Plates were returned to the incubator for 24 h, afterward the medium was removed, cells were rinsed with PBS and placed in Neutral Red medium at 50 μg/ml in which cells were incubated for 3 more hours. Wells were then washed with PBS and Neutral Red was extracted from cells with 1.0% Glacial Acetic Acid/50% Ethanol/49% H2O solution.
Following a 30-minute extraction with mixing, the absorbance of each well was measured at 570 nm with Molecular Devices SpectraMax® microplate spectrophotometer. P values were calculated using two-tailed Student's test and p=0.05 was set as borderline for statistical significance.

A further series deals with RAR. The series can be described thus: Cignal RAR reporter assay. It is filed as cell-based. The following applies: 0.3 μg/ml. The source says:
Tissue irritation is a common side effect of retinoids. It is mediated, at least in part, by retinoid interaction with retinoic acid receptors (RARs; Thacher S M, Vasudevan J, Chandraratna R A. Therapeutic applications for ligands of retinoid receptors. Curr Pharm Des. 2000 January; 6(1):25-58; Kambayashi H, Odake Y, Takada K, Funasaka Y, Ichihashi M, Kato S. N-retinoyl-D-glucosamine, a new retinoic acid agonist, mediates topical retinoid efficacy with no irritation on photoaged skin. Br J Dermatol. 2005 December; 153 Suppl 2:30-6).
(In general: In a reporter assay the amount or activity of a reporter protein is the signal.)

≈ marks a conversion by molar mass, not a printed value.

`C=C[C@@](C)(/C=C/c1ccc(O)cc1)CCC=C(C)C` [bakuchiol, reference compound]: the “stability under UVB irradiation (HPLC-MS)” value in [1] was “disintegrates”. Besides, the “cytotoxicity compared to the water-treated control” value in series [2] (UVB 150mJ/cm2, added 24 h before, terminated 24 h after irradiation, MTT) came out at 36%. The “DPPH color (% Control)” value in [3] (0.5 ug/ml) turned out to be 85 % Control; in [3] (2 ug/ml) it was 92 % Control; in series [3] (10 ug/ml), 46 % Control. The molecule further had a cytotoxicity in series [4] (monolayers formed before addition) of 39%.
As to `C=CC(C)(/C=C/c1ccc(OC(=O)/C=C/c2ccc(O)c(OC)c2)cc1)CCC=C(C)C` (stereo not shown) [SBD.FA], in the series on P. acnes, the MIC was around 60 µg/mL (≈ 139 µM). Also, the inhibition at 2.5 µg/mL in the series on adult HEK was determined as 21%; in [5] it was 53%. Further, in series [2] (human, 48 h), the “cytotoxicity compared to the water-treated control” value is 8%. Moreover, the “DPPH color (% Control)” value was found to be 102 % Control in series [3] (0.5 ug/ml), 99 % Control in series [3] (2 ug/ml) and 60 % Control in series [3] (10 ug/ml). Moreover, the “cytotoxicity in absence and presence of UVB light” value with 3T3 cells was “lack of significant cytotoxicity”. In series [4] (human), the cytotoxicity is reported as 8%.
For the molecule `CC1=C(/C=C/C(C)=C/C=C/C(C)=C/C(=O)O)C(C)(C)CCC1` [ATRA, all-trans retinoic acid, reference compound], the “increase of RAR-mediated transcription” value in the series with RAR came out at 460%.

(Values after patent publication US10471035B2, “Compositions and methods for using esters of meroterpenes and of other resveratrol analogues” (Sunny BioDiscovery, priority 2014, dated 2019).)
